Laboratory results: ChEMBL document CHEMBL1129757 (J Med Chem, 1996)

molecular target: T1, Melatonin receptor (Gallus gallus, UniProt P49288+P51050+P49285); test: Binding affinity towards melatonin receptor in chicken brain.

Q: Which Ki does the source give for `CCCC(=O)NCc1cccc(OC)c1` here?
A: The Ki was 13000 nM.

Q: How did the Ki turn out when `COc1ccc2c(c1)c1c(n2C)CCCC1CNC(C)=O` (stereo unspecified) was run?
A: Its Ki is 0.97 nM.

Q: For `CCCC(=O)NCCCCc1ccc(OC)cc1`, which Ki is on record?
A: Its Ki is 822 nM.

Q: For `CCC(=O)NCCCCc1ccc(OC)cc1`, which Ki is on record?
A: The Ki was 1400 nM.

Q: Which Ki does the source give for `COc1ccc(CCNC(C)=O)cc1OC` here?
A: The Ki was 870 nM.

Q: Which Ki does the source give for `COc1ccc(Br)cc1CCN` here?
A: The Ki was 8 nM.

Q: With `CCC(=O)NCCCCc1cccc(OC)c1` as the molecule, how does the Ki read?
A: The Ki was 119 nM.

Q: For `CCC(=O)NCCCc1ccc(OC)cc1`, which Ki is on record?
A: The Ki was 2900 nM.

Q: How did the Ki turn out when `CCC(=O)NCCCc1cccc(F)c1` was run?
A: Its Ki is 740 nM.

Q: With `CCC(=O)NCCc1ccccc1OC` as the molecule, how does the Ki read?
A: Its Ki is 135 nM.

Q: Which Ki does the source give for `COc1ccc(CCCCNC(C)=O)cc1` here?
A: Its Ki is 7300 nM.

Q: For `CCCC(=O)NCCCc1ccc(OC)cc1`, which Ki is on record?
A: The Ki was 860 nM.

Q: For `CCCC(=O)NCCCc1cccc(OC)c1`, which Ki is on record?
A: Its Ki is 5.5 nM.

Q: How did the Ki turn out when `COc1ccccc1CCNC(C)=O` was run?
A: The Ki was 573 nM.

Q: `COc1cccc(CCCNC(C)=O)c1` was tested. Which Ki did it give?
A: Its Ki is 63 nM.

Q: Which Ki does the source give for `CCC(=O)NCCc1ccc(OC)c(OC)c1` here?
A: Its Ki is 130 nM.

Q: How did the Ki turn out when `CCCC(=O)NCCCc1cccc(F)c1` was run?
A: Its Ki is 434 nM.

Q: Which Ki does the source give for `CCCCC(=O)NCCc1ccccc1OC` here?
A: Its Ki is 16000 nM.

Q: How did the Ki turn out when `CCCCC(=O)NCCCCc1ccccc1OC` was run?
A: Its Ki is 9190 nM.

Q: For `CC(=O)NCCCc1cccc(F)c1`, which Ki is on record?
A: The Ki was 1920 nM.

Q: How did the Ki turn out when `CCC(=O)NCc1cccc(OC)c1` was run?
A: Its Ki is 22000 nM.

Q: With `CCC(=O)NCCc1ccc(OC)cc1` as the molecule, how does the Ki read?
A: The Ki was 19200 nM.

Q: With `CCCC(=O)NCCCCc1ccccc1OC` as the molecule, how does the Ki read?
A: The Ki was 116 nM.

Q: With `CC(=O)NCCCc1cccc(Cl)c1` as the molecule, how does the Ki read?
A: Its Ki is 636 nM.

Q: For `CCC(=O)NCCc1cccc(OC)c1`, which Ki is on record?
A: The Ki was 62 nM.

Q: `CCCC(=O)NCCCc1ccccc1OC` was tested. Which Ki did it give?
A: The Ki was 442 nM.

Q: Which Ki does the source give for `CCCC(=O)NCCCCc1cccc(OC)c1` here?
A: Its Ki is 208 nM.

Q: How did the Ki turn out when `CCC(=O)NCCCc1ccccc1OC` was run?
A: The Ki was 374 nM.

Q: Which Ki does the source give for `CCCC(=O)NCCc1ccccc1OC` here?
A: The Ki was 69 nM.

Q: Which Ki does the source give for `COc1ccccc1CCCNC(C)=O` here?
A: Its Ki is 1430 nM.

Q: `CCCCC(=O)NCCCCc1cccc(OC)c1` was tested. Which Ki did it give?
A: Its Ki is 9670 nM.

Q: Which Ki does the source give for `CCCCC(=O)NCCCc1ccccc1OC` here?
A: Its Ki is over 100000 nM.

Q: How did the Ki turn out when `CCC(=O)NCCCCc1ccccc1OC` was run?
A: The Ki was 339 nM.

Q: For `CCC(=O)NCCCc1cccc(OC)c1`, which Ki is on record?
A: Its Ki is 5.6 nM.

Q: `CCCC(=O)NCCc1ccc(OC)cc1` was tested. Which Ki did it give?
A: Its Ki is 17900 nM.

Q: With `CCCC(=O)NCCc1ccc(OC)c(OC)c1` as the molecule, how does the Ki read?
A: Its Ki is 59 nM.

Q: With `CC(=O)NCCCc1cccc(Br)c1` as the molecule, how does the Ki read?
A: The Ki was 852 nM.

Q: How did the Ki turn out when `CCCC(=O)NCCc1cccc(OC)c1` was run?
A: The Ki was 40 nM.

Q: `CCCC(=O)NCCCc1cccc(Cl)c1` was tested. Which Ki did it give?
A: Its Ki is 113 nM.

Q: `COc1cccc(CNC(C)=O)c1` was tested. Which Ki did it give?
A: Its Ki is 57000 nM.

Q: `CCCCC(=O)NCCCCc1ccc(OC)cc1` was tested. Which Ki did it give?
A: Its Ki is 7000 nM.

Q: With `CCC(=O)NCCc1c[nH]c2ccc(OC)cc12` as the molecule, how does the Ki read?
A: Its Ki is 0.19 nM.

Q: With `CCC(=O)NCCCc1cccc(Br)c1` as the molecule, how does the Ki read?
A: The Ki was 318 nM.

Q: `CCCCC(=O)NCCc1ccc(OC)cc1` was tested. Which Ki did it give?
A: The Ki was 70800 nM.

Q: How did the Ki turn out when `CCCC(=O)NCCCc1cccc(Br)c1` was run?
A: The Ki was 354 nM.

Q: For `CCCCC(=O)NCCCc1cccc(Cl)c1`, which Ki is on record?
A: The Ki was 15100 nM.

Q: For `COc1ccc(CCCNC(C)=O)cc1`, which Ki is on record?
A: Its Ki is 14000 nM.

Q: How did the Ki turn out when `CCCCC(=O)NCCc1cccc(OC)c1` was run?
A: The Ki was 741 nM.

molecular target: T1, Melatonin receptor; test: Binding affinity towards melatonin receptor in Chicken brain Experiment 2

Q: With `COc1ccc(CCNC(C)=O)cc1` as the molecule, how does the Ki read?
A: Its Ki is over 1000 nM.

molecular target: T1, Melatonin receptor; test: Binding affinity towards melatonin receptor in Chicken brain Experiment 1

Q: For `COc1ccc(CCNC(C)=O)cc1`, which Ki is on record?
A: The Ki was over 100000 nM.

Q: With `COc1cccc(CCNC(C)=O)c1` as the molecule, how does the Ki read?
A: Its Ki is 958 nM.
